pKd: −log10 of the molar value.
How the values were obtained:
[1] = 349 patients; cited from earlier work
[2] = tested on: MC-38 cells that endogenously express MDR1 P-glycoprotein engineered to express Nectin-4; assay: In vitro efficacy of ADCs in Pgp-expressing cancer model (CTG, five days); type: cell-based; details: presence or absence of cyclosporin A (5 μM); 150 nM ADC, normalized to control antibody
Procedure: MC-38 cells that endogenously express MDR1 P-glycoprotein (Pgp) were engineered to express Nectin-4 and cultured in DMEM+10% FBS. Cells were either treated with vehicle (DSMO) or with cyclosporin A (5 μM, stock solution in DMSO) known to act as an inhibitor of Pgp, in presence of ADCs.
The ADCs and the equivalent isotype control ADCs were used at dose range from 150 to 2.3 10^−3 nM. After five days of co-incubation with cells, cell viability was measured by addition of Cell Titer Glo™ (CTG) substrate. Luminescence vs. Ab concentration was plotted.

[3] = UC patients; cited from earlier work
[4] = tested on: SUM185 cells; assay: In vitro ADC cytotoxicity, 5 days, CTG; type: cell-based, human; details: model of anti-HER2 resistance
Procedure: Luminescence vs. Ab concentration was plotted on graph.
For each ADC, a concentration range of ADC was incubated with nectin-4-expressing cells. After incubation, CTG substrate was added at 1/1 ratio and the luminescent signal was read with a plate reader (Enspire). It allowed quantifying the ATP present (indicator of metabolically active cells) which was proportional to cell viability.
This setting is used as a model of anti-HER2 resistance.
For each ADC, a concentration range of ADC was incubated with nectin-4-expressing cells. After incubation, CTG substrate was added at 1:1 ratio and the luminescent signal was read with a plate reader (Enspire), allowing quantification of the ATP present (indicator of metabolically active cells) which was proportional to cell viability.

[5] = molecular target: T1, wild-type human Nectin-4 (Homo sapiens, UniProt Q96NY8); assay: Flow cytometry binding to wild-type Nectin-4 expressing CHO cells
T1 construct: expressed in transfected cells; host or cells: CHO (huNectin4 Cl.3C8)
T1 sequence (Q96NY8 32-510): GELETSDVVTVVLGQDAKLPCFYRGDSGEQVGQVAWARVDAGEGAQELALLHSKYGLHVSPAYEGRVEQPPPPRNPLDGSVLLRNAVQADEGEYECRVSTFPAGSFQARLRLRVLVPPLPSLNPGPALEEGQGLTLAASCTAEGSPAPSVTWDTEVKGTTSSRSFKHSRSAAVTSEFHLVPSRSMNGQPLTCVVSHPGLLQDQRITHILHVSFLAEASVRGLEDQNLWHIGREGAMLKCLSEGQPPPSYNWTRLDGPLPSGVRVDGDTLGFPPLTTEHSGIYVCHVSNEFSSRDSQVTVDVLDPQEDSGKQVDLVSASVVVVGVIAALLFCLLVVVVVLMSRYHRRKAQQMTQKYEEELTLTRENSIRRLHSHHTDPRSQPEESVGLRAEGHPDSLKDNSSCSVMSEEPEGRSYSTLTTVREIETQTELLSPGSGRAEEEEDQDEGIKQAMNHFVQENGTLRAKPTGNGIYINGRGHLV
Procedure: plates of hybridoma supernatants were tested for binding on the wild-type human Nectin-4 expressing CHO cell line by flow cytometry. Briefly, Nectin-4 expressing cells were used at 0.2×10^6 cells by well in a buffer of PBS, BSA 0.5%, EDTA 5 mM. The first antibody was incubated with cells for 1h at +5±3° C. in 50 μL of supernatant. […] Acquisition HTFC flow cytometer (Intellicyt), with data analysis on ForeCyt™ software.
(§1) The characterization of the binding of the antibodies on Nectin-4 domains was performed by flow cytometry using cells made to express the wild-type human Nectin-4 protein and cells made to express a modified Nectin-4 having the Ig-like C2 type 1 and the Ig-like C2 type 2 domains and lacking the Ig-like V domain (the C1C2 construct). The latter protein additionally bears a V5 tag for flow cytometry cell sorting, and cells were used as Nectin4-C1C2-V5 sorted cells.
Wild-type Nectin-4 (the CI.3C8 cell line), a C2 construct (containing the Ig-like C2 type 2 domain and lacking both the V and the C1 domains) and the C1C2 construct allow the determination of whether test antibodies bind to the V or different C domains. Briefly, nucleic acid sequences encoding different human Nectin-4 domains were amplified by PCR. The PCR products were inserted into an expression vector at appropriate restriction sites. […]

[6] = tested on: rat Nectin-4; assay: Flow cytometry species cross-reactivity on CHO cells; type: binding
Procedure: Anti-Nectin-4 antibodies were tested by flow cytometry for binding to different CHO cell lines made to express respectively the mouse, cynomolgus and rat Nectin-4 protein (including an N-terminal V5 tag not shown in the sequences below).

[7] = tested on: SUM190 cells; assay: In vivo efficacy of ADCs, SUM190 mouse model of human breast cancer (Example 9); details: single i.v. injection 3 mg/kg; antibodies conjugated to ggfg-Dxd, DAR=8
Procedure: When tumors reached a volume between 195 and 250 mm3, mice were randomized into groups of 9 mice for intravenous treatment with a single injection of 3 mg/kg of camptothecin ADCs. Tumor growth were followed twice a week. Kaplan Meier survival curves were established by using GraphPad Prism V7 software according to the following criteria: When the tumor volume reached 1500 mm3, mice were euthanized and considered dead on the day of sacrifice (D).

[8] = molecular target: T2, Hu-Nectin4 IgC1C2-V5 (modified Nectin-4 lacking the Ig-like V domain, C1C2 construct) (Homo sapiens, UniProt Q96NY8); assay: Flow cytometry binding to cells expressing the Nectin-4 C1C2 construct
T2 construct: expressed in transfected cells; host or cells: CHO
T2 sequence (Q96NY8 148-510): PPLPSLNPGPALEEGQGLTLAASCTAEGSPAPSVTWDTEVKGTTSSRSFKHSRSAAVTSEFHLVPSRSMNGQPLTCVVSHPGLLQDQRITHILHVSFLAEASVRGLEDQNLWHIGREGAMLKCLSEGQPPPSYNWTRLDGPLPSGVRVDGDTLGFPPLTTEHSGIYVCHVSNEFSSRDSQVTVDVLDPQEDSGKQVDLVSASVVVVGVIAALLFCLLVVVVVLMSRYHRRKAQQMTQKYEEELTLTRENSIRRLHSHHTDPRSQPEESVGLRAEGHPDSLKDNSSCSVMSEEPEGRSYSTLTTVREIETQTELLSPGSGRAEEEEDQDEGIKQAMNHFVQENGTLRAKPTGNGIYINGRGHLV
Procedure: as §1
Wild-type Nectin-4 (the CI.3C8 cell line), a C2 construct (containing the Ig-like C2 type 2 domain and lacking both the V and the C1 domains) and the C1C2 construct allow the determination of whether test antibodies bind to the V or different C domains. Briefly, nucleic acid sequences encoding different human Nectin-4 domains were amplified by PCR. The PCR products were inserted into an expression vector at appropriate restriction sites. A leader peptide, and for C1C2 and C2 an N-terminal V5 tag having the amino acid sequence […] (SEQ ID NO: 41), were added, and expression at the surface of cells was confirmed by flow cytometry. The amino acid sequences of the resulting different human Nectin-4 domain fragment-containing proteins are shown below (V5 tag underlined). The vectors were then transfected into the CHO cell line to obtain stable clones expressing the different Nectin-4 domain proteins at the cell surface.

[9] = molecular target: T3, wild-type human Nectin-4 protein (huNectin4-his-BirA) (Homo sapiens, UniProt Q96NY8); assay: Affinity determination by SPR (Biacore T200); type: binding; details: 25° C.
T3 sequence (Q96NY8 with tags, fused parts or gaps): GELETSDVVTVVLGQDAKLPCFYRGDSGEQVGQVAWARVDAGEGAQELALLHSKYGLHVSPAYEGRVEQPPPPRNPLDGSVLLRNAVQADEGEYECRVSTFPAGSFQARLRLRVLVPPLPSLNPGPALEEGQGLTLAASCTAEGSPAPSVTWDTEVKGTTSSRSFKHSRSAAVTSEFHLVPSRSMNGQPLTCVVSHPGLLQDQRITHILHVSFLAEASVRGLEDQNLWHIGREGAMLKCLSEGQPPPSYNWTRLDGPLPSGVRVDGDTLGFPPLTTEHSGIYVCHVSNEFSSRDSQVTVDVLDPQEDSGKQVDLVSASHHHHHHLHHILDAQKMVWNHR
Procedure: Antibodies were tested for binding affinity to the wild-type human Nectin-4 protein by SPR (Surface Plasmon Resonance) methods. Measurements were performed on a Biacore T200 apparatus (Biacore GE Healthcare) at 25° C. Sensorgrams were analyzed with Biacore T100 Evaluation software. A CMR Sensor Chip with immobilized Protein A at about 600 RU was used. Anti-Nectin-4 antibodies were captured onto the Protein-A chip (antibodies diluted to 1 μg/ml in HBS-EP+1× buffer and injected over 120s at 40 μL/min). Recombinant human monomeric huNectin4-his-BirA protein was injected at different concentrations in a range from 100 nM to 1.56 nM over captured antibodies (HuNectin4-His-BirA diluted in HBS-EP+1× in ½ dilutions, injected over 120s at 40 μl/min) and allowed to dissociate for 600s. The chip was regenerated with NaOh 10 mM 2× for 30s at 40 μl/min. The sensorgram sets were fitted using the 1:1 kinetic binding model or two state reaction model, as a function of the profile of the curves.

[10] = failing prior chemotherapy; cited from earlier work

Chain of rat Nectin-4 (as listed by the source): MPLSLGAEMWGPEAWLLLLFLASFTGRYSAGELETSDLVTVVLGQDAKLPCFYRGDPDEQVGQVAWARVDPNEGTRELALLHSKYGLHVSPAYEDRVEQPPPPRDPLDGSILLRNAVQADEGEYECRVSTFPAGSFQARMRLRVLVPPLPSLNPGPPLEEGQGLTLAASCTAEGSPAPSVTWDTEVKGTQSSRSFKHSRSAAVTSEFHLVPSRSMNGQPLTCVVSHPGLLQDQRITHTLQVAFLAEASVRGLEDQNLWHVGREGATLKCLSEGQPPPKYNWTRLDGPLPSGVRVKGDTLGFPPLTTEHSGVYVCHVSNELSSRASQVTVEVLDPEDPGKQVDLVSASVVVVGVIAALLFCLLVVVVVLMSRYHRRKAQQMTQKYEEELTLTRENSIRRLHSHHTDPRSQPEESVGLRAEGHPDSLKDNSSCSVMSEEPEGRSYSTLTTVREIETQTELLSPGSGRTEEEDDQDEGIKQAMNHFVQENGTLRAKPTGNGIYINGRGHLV

For CC[C@@]1(O)C(=O)OCc2c1cc1n(c2=O)Cc2c-1nc1cc(F)c(C)c3c1c2[C@@H](N)CC3 [exatecan], which “efficacy in addition to gemcitabine versus gemcitabine alone” value [1] is on record?
The value was “not superior in efficacy to gemcitabine alone”.

What does the source list for PADCEV?
influence of Pgp on anti-tumor activity [2]: negatively affected by Pgp; CR (complete response rate) [3]: 12%; ORR (objective response rate) [3]: 44%; discontinuation due to clinical symptoms [3]: 5%; discontinuation due to progressive disease as assessed by RECIST [3]: 48%; patients that discontinued experienced adverse events, notably neuropathy [3]: 18%; killing of SUM185 cells (cell viability) [4]: able to kill the SUM185 more efficiently than ENHERTU

Which results are given for Enfortumab [reference compound]?
binding to whole (wild-type) human Nectin-4 protein [5]: bound to the whole Nectin-4 protein; binding to rat Nectin-4 expressing CHO cells [6]: bind to rat Nectin-4; control of tumor growth [7]: no longer showed the ability to control tumor growth; binding to the C1C2 construct [8]: lost all binding to the C1C2 construct; pKd [9]: 7.86; ka [9]: 340000 M⁻¹ s⁻¹; kd [9]: 0.0047 s⁻¹

Which activity in patients [10] does the source give for CC[C@@]1(O)C(=O)OCc2c1cc1n(c2=O)Cc2cc3c([N+](=O)[O-])cccc3nc2-1 [RFS2000] here?
Its activity in patients is “did not exert significant activity”.
